Measurements from ChEMBL document CHEMBL4507273 (2021).

What was measured:
[1] = molecular target: T1, Alpha-2B adrenergic receptor (Homo sapiens, UniProt P18089); test: GPCRScan assay: inhibition of Alpha2B; design: radioligand conc. used [nm] 1.5 – 2.0, parental cells HEKT
T1 sequence (P18089 whole entry): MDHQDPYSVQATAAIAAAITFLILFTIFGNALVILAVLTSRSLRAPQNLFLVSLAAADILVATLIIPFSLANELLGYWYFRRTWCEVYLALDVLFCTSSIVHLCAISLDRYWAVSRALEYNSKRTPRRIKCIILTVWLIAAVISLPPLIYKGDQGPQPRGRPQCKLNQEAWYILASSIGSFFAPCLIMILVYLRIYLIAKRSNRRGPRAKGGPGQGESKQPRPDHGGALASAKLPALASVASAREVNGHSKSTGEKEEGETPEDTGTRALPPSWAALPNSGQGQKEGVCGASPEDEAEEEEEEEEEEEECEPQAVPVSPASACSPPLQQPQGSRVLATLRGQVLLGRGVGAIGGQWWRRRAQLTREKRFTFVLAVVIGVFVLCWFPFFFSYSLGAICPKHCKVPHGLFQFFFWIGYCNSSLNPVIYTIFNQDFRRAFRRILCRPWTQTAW

[2] = molecular target: T2, Alpha-1D adrenergic receptor (Homo sapiens, UniProt P25100); test: GPCRScan assay: inhibition of Alpha1D; design: radioligand conc. used [nm] 0.3 – 1.0, parental cells stable
T2 sequence (P25100 whole entry): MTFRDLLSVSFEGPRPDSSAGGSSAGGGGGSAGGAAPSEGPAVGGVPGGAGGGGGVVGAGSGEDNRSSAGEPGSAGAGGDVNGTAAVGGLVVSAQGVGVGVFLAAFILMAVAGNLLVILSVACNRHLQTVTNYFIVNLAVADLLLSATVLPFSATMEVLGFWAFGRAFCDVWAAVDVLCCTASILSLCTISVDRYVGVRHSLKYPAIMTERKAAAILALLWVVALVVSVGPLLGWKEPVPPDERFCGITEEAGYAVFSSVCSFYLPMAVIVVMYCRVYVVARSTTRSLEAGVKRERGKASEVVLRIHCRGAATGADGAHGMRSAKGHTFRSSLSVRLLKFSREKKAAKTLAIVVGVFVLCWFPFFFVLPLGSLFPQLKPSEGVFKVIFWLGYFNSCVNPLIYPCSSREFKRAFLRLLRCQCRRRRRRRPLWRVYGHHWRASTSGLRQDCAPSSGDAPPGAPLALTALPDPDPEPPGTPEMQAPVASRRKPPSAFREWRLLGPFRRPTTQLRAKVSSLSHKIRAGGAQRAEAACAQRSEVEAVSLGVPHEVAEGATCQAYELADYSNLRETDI

[3] = tested on: Tyrosine-protein kinase ABL1 (Homo sapiens), P00519 [F317I]; conditions: Compound concentration 1000.0 nM
[4] = tested on: Tyrosine-protein kinase ABL1 (Homo sapiens), P00519 [F317L]; conditions: Compound concentration 1000.0 nM
[5] = molecular target: Mitogen-activated protein kinase kinase kinase 5 (Homo sapiens) (UniProt Q99683); conditions: Compound concentration 1000.0 nM
[6] = molecular target: Bone morphogenetic protein receptor type-1B (Homo sapiens) (UniProt O00238); conditions: Compound concentration 1000.0 nM
[7] = molecular target: Cyclin-dependent kinase 19 (Homo sapiens) (UniProt Q9BWU1); conditions: Compound concentration 1000.0 nM
[8] = molecular target: Casein kinase I isoform alpha-like (Homo sapiens) (UniProt Q8N752); conditions: Compound concentration 1000.0 nM
[9] = molecular target: Death-associated protein kinase 3 (Homo sapiens) (UniProt O43293); conditions: Compound concentration 1000.0 nM
[10] = molecular target: Eukaryotic translation initiation factor 2-alpha kinase 1 (Homo sapiens) (UniProt Q9BQI3); conditions: Compound concentration 1000.0 nM
[11] = tested on: Fibroblast growth factor receptor 3 (Homo sapiens), P22607 [G697C]; conditions: Compound concentration 1000.0 nM
[12] = molecular target: Hormonally up-regulated neu tumor-associated kinase (Homo sapiens) (UniProt P57058); conditions: Compound concentration 1000.0 nM
[13] = molecular target: Insulin receptor-related protein (Homo sapiens) (UniProt P14616); conditions: Compound concentration 1000.0 nM
Insulin receptor-related protein (Homo sapiens), sequence (P14616 27-742 limits assumed): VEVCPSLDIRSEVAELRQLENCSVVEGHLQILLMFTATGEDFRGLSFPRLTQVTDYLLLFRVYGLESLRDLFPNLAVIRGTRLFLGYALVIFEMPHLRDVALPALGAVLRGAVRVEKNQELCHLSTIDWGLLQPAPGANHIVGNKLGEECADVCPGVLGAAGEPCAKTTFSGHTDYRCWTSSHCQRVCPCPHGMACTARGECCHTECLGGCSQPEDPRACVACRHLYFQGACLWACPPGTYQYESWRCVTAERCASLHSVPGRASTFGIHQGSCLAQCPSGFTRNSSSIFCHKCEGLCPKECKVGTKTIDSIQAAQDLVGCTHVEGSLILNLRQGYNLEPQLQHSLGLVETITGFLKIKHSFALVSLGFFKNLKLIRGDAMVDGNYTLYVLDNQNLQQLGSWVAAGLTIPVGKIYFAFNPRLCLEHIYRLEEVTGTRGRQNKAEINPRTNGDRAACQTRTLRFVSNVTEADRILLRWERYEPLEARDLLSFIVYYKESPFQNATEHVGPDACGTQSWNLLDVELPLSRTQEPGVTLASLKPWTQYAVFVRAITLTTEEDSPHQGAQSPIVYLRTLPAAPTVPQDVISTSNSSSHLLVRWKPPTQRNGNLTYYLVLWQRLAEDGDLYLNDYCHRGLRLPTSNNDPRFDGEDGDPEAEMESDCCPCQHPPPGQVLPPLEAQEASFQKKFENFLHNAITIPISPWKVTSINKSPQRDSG
Insulin receptor-related protein (Homo sapiens), sequence (P14616 747-1297 limits assumed): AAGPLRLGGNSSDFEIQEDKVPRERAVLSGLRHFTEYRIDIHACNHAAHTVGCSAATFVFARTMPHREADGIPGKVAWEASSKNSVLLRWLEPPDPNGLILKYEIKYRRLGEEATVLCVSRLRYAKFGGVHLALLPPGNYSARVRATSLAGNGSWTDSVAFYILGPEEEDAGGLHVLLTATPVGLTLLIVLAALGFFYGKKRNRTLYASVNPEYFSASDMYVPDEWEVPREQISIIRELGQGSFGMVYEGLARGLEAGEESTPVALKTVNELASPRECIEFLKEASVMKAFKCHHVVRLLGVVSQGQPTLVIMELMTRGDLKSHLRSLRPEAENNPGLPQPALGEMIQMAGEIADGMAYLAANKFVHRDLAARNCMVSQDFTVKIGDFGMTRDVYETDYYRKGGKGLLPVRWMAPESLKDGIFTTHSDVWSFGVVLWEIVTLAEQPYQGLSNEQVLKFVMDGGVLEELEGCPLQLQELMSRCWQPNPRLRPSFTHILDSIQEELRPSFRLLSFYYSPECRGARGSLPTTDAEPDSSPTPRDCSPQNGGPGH

[14] = tested on: Mast/stem cell growth factor receptor Kit (Homo sapiens), P10721 [L576P]; conditions: Compound concentration 1000.0 nM
[15] = molecular target: Mitogen-activated protein kinase kinase kinase 10 (Homo sapiens) (UniProt Q02779); conditions: Compound concentration 1000.0 nM
[16] = molecular target: Serine/threonine-protein kinase OSR1 (Homo sapiens) (UniProt O95747); conditions: Compound concentration 1000.0 nM
[17] = molecular target: Platelet-derived growth factor receptor alpha (Homo sapiens) (UniProt P16234); conditions: Compound concentration 1000.0 nM
[18] = tested on: Phosphatidylinositol 4,5-bisphosphate 3-kinase catalytic subunit alpha isoform (Homo sapiens), P42336 [I800L]; conditions: Compound concentration 1000.0 nM
Phosphatidylinositol 4,5-bisphosphate 3-kinase catalytic subunit alpha isoform (Homo sapiens), P42336 [I800L], sequence (P42336 whole entry I800L, canonical isoform): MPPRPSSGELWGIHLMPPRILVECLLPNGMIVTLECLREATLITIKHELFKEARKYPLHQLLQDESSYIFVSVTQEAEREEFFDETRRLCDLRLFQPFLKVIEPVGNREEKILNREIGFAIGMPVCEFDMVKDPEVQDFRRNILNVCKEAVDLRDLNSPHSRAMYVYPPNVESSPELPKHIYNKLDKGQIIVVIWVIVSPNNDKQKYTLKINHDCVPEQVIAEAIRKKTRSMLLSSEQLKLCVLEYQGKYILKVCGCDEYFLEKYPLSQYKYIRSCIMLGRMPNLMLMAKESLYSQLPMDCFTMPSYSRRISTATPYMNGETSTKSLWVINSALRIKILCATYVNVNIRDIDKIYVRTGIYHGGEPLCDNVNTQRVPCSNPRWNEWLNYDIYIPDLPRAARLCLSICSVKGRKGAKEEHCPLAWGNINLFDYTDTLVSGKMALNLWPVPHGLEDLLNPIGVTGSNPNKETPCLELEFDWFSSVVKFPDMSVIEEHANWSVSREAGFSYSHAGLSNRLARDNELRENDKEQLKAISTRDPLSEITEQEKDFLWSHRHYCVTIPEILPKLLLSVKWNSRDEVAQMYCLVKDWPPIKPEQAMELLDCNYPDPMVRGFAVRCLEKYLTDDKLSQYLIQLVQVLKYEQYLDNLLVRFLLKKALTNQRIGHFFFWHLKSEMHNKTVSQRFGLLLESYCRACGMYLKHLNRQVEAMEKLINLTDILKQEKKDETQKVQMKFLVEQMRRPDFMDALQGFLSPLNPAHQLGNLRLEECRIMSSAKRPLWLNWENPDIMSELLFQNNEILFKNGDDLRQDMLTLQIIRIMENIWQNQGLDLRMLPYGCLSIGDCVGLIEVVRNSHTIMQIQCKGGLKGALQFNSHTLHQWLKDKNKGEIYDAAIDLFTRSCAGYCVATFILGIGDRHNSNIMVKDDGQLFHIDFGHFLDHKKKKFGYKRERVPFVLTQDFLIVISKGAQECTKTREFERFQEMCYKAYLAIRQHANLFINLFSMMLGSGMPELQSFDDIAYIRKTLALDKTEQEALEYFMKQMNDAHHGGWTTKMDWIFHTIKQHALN

[19] = molecular target: Phosphatidylinositol 5-phosphate 4-kinase type-2 gamma (Homo sapiens) (UniProt Q8TBX8); conditions: Compound concentration 1000.0 nM
[20] = molecular target: Serine/threonine-protein kinase N2 (Homo sapiens) (UniProt Q16513); conditions: Compound concentration 1000.0 nM
[21] = molecular target: Serine/threonine-protein kinase Sgk2 (Homo sapiens) (UniProt Q9HBY8); conditions: Compound concentration 1000.0 nM
[22] = molecular target: NUAK family SNF1-like kinase 2 (Homo sapiens) (UniProt Q9H093); conditions: Compound concentration 1000.0 nM
[23] = molecular target: TGF-beta receptor type-1 (Homo sapiens) (UniProt P36897); conditions: Compound concentration 1000.0 nM
[24] = molecular target: Non-receptor tyrosine-protein kinase TNK1 (Homo sapiens) (UniProt Q13470); conditions: Compound concentration 1000.0 nM
Non-receptor tyrosine-protein kinase TNK1 (Homo sapiens), sequence (Q13470 whole entry): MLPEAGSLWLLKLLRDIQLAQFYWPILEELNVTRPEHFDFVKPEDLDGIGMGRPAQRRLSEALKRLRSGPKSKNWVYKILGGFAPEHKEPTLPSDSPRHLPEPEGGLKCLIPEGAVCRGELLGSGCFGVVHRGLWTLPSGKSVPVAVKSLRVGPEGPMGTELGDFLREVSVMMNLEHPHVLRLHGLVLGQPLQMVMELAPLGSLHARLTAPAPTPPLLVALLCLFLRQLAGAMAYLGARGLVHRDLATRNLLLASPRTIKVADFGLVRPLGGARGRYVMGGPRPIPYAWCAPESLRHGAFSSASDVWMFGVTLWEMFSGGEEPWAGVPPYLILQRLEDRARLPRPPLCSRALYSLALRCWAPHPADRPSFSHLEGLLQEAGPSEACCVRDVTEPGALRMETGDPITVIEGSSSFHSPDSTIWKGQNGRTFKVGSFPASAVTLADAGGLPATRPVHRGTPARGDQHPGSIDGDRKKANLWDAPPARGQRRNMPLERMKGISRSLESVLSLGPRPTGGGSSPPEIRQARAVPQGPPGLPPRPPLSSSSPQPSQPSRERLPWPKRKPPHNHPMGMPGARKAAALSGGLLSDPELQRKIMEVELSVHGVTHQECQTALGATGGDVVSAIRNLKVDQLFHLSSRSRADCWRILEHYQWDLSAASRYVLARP

[25] = molecular target: NT-3 growth factor receptor (Homo sapiens) (UniProt Q16288); conditions: Compound concentration 1000.0 nM
[26] = molecular target: Transient receptor potential cation channel subfamily M member 6 (Homo sapiens) (UniProt Q9BX84); conditions: Compound concentration 1000.0 nM
Transient receptor potential cation channel subfamily M member 6 (Homo sapiens), sequence (Q9BX84 whole entry): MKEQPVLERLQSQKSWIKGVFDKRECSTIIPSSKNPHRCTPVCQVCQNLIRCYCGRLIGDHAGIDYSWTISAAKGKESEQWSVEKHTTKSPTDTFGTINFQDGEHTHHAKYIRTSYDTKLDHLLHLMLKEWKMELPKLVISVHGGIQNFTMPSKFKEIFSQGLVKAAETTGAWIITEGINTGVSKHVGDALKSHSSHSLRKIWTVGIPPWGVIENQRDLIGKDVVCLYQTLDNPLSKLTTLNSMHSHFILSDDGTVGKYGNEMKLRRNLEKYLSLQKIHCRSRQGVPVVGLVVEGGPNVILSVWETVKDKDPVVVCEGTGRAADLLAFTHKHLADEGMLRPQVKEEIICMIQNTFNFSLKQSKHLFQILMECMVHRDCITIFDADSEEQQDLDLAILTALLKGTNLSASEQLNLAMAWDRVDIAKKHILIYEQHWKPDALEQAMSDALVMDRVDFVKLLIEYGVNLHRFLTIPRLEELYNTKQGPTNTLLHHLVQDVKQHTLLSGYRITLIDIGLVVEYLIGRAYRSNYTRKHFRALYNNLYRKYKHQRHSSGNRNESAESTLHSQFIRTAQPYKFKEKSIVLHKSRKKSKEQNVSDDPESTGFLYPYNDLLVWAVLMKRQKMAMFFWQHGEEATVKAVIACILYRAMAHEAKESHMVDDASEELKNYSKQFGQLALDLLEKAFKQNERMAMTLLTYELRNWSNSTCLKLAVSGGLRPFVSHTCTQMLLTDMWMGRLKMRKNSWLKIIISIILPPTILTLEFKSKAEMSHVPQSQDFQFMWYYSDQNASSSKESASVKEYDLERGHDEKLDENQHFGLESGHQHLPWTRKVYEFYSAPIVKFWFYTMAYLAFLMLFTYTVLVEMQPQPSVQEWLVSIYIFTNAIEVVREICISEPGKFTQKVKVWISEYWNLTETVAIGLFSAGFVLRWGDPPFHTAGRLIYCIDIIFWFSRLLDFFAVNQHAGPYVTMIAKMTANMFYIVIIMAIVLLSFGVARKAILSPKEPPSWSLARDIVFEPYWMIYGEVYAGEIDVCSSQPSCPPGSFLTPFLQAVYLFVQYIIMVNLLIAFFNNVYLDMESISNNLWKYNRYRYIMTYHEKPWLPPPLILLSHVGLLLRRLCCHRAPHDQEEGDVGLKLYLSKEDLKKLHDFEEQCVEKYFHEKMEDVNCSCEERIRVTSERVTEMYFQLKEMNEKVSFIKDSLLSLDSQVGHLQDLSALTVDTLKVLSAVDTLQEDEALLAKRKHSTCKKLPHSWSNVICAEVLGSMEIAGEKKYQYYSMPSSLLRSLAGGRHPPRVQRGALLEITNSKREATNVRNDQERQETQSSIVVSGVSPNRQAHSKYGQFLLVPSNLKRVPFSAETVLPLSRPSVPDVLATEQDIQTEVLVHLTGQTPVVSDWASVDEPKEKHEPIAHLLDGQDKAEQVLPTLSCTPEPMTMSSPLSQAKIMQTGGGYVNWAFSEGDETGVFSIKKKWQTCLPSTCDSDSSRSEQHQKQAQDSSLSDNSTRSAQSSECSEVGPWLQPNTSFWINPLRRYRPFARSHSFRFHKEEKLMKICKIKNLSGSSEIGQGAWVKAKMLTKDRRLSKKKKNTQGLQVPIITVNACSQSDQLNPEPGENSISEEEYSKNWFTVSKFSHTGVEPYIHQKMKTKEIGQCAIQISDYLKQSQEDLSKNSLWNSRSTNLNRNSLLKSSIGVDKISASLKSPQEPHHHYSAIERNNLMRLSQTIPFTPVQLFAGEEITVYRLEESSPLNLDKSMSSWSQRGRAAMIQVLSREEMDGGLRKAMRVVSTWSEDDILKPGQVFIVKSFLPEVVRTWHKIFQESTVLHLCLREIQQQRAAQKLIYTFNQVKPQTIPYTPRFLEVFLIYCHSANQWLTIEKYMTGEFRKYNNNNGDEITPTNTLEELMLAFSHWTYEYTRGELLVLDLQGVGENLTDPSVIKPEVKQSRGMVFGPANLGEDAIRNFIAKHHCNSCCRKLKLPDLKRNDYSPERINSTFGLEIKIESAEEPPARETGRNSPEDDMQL

[27] = molecular target: 5-hydroxytryptamine receptor 5A (Homo sapiens, UniProt P47898); conditions: Compound concentration 10.0 uM
[28] = molecular target: Sodium-dependent serotonin transporter (Homo sapiens, UniProt P31645); conditions: Compound concentration 10.0 uM

CNCc1ccccc1-c1csc([C@@H](C)Nc2nc(C)nc3cc(OC)c(OC)cc23)c1 [BAY-293]
active: inhibition [27] 68.5%
1230 nM: Ki ([1]; read-out: Ki)
inactive: residual activity [3] 100% | residual activity [4] 86% | residual activity [5] 91% | residual activity [6] 83% | residual activity [7] 85% | residual activity [8] 100% | residual activity [9] 100% | residual activity [10] 100% | residual activity [11] 85% | residual activity [12] 100% | residual activity [13] 95% | residual activity [14] 92% | residual activity [15] 96% | residual activity [16] 67% | residual activity [17] 84% | residual activity [18] 85% | residual activity [19] 92% | residual activity [20] 89% | residual activity [21] 95% | residual activity [22] 97% | residual activity [23] 74% | residual activity [24] 64% | residual activity [25] 88% | residual activity [26] 91% | inhibition [28] 47.4%
338 nM: Ki ([2]; read-out: Ki)

CNCc1ccccc1-c1csc([C@H](C)Nc2nc(C)nc3cc(OC)c(OC)cc23)c1 [BAY-294]
847 nM: Ki ([1]; read-out: Ki)
active: inhibition [27] 78.1% | inhibition [28] 56.2%
389 nM: Ki ([2]; read-out: pKi (converted))
813 nM: Ki ([1]; read-out: pKi (converted))
inactive: residual activity [3] 100% | residual activity [4] 97% | residual activity [5] 100% | residual activity [6] 100% | residual activity [7] 88% | residual activity [8] 100% | residual activity [9] 100% | residual activity [10] 100% | residual activity [11] 100% | residual activity [12] 100% | residual activity [13] 93% | residual activity [14] 100% | residual activity [15] 100% | residual activity [16] 78% | residual activity [17] 92% | residual activity [18] 81% | residual activity [19] 100% | residual activity [20] 90% | residual activity [21] 100% | residual activity [22] 100% | residual activity [23] 80% | residual activity [24] 85% | residual activity [25] 100% | residual activity [26] 100%
397 nM: Ki ([2]; read-out: Ki)
